In paper PMC4019635 (PLoS ONE, 2014):

How the values were obtained:
[1] = molecular target: RDLbdI/V (Drosophila melanogaster, UniProt P25123, I283V); experiment: cell-based; conditions: for concentration at which responses failed to saturate: highest concentration usable, TACA, muscimol, β-alanine insoluble at higher concentrations
[2] = molecular target: T1, RDLbd (Drosophila melanogaster, UniProt P25123); experiment: cell-based
T1 sequence (P25123 45-606): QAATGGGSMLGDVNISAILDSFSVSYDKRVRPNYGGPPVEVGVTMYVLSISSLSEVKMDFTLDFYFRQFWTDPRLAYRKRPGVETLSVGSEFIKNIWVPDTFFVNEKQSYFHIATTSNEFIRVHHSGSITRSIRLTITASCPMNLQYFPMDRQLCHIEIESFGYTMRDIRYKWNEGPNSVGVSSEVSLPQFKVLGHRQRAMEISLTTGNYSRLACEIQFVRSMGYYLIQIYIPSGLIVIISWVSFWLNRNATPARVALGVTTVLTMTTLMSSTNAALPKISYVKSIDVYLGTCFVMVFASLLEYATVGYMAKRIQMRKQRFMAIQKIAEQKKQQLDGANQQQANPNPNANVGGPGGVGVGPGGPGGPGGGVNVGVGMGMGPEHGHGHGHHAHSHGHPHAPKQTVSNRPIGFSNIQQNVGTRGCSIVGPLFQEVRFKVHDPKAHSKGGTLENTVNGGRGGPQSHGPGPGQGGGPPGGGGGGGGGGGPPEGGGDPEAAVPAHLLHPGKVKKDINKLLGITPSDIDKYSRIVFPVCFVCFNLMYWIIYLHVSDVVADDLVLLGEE

[3] = test system: RDLbdI/VA^301S; experiment: cell-based; design: species or system Drosophila melanogaster; conditions: compared to wild-type / RDLbdI/V
[4] = test system: Drosophila carrying the RDLA^301S mutation; design: method as in PMID 11095718; conditions: cited from earlier work
[5] = test system: Drosophila carrying the P299S mutation in GluCl; design: method as in PMID 11095718; conditions: cited from earlier work
[6] = test system: human glycine α1 receptor A288G; design: method as in PMID 20308070; conditions: A288G mutation; cited from earlier work
[7] = test system: RDL A^301S mutation; design: method as in PMID 2124226; conditions: cited from earlier work

Chain of RDLbdI/V (P25123 45-606 I283V): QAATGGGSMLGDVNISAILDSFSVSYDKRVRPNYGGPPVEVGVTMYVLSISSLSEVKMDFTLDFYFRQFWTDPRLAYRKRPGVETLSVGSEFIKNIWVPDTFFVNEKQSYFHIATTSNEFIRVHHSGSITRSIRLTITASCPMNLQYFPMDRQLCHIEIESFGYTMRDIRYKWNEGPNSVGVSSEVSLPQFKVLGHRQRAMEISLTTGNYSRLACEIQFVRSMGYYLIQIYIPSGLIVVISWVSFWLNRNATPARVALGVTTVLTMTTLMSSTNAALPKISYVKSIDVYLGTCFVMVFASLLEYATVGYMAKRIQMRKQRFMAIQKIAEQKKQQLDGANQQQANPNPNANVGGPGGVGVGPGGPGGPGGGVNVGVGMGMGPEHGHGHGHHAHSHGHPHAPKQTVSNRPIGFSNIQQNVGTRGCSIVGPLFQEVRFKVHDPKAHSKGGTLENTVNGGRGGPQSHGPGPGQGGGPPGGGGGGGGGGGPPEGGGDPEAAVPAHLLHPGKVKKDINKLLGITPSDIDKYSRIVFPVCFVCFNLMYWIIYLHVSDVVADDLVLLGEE

Structure (SMILES) | concentration at which responses failed to saturate [1] [mM] | IC50 [2] [µM] | resistance caused by the A^301S mutation [3] [fold] | also measured
NCCC(=O)O [β-alanine] | 10 |  |  | 
CC[C@H](C)[C@H]1O[C@]2(CC[C@@H]1C)C[C@@H]1C[C@@H](C/C=C(\C)[C@@H](O[C@H]3C[C@H](OC)[C@@H](O[C@H]4C[C@H](OC)[C@@H](O)[C@H](C)O4)[C@H](C)O3)[C@@H](C)/C=C/C=C3\CO[C@@H]4[C@H](O)C(C)=C[C@@H](C(=O)O1)[C@]34O)O2 [IVM, ivermectin] |  | 0.525 | 2 | resistance compared to the wild-type [4]: 3.3 fold; sensitivity change [5]: ten-fold less sensitive; increase in sensitivity [6]: ~100 fold
N#Cc1nn(-c2c(Cl)cc(C(F)(F)F)cc2Cl)c(N)c1[S+]([O-])C(F)(F)F (stereo not drawn) [fipronil] |  | 0.331 | 3 | current induced when applied alone ([1]; 1 nM−100 µM, no GABA, receptor variant not stated, data not shown): no discernible current
ClC1=C(Cl)[C@]2(Cl)[C@@H]3[C@@H]4C[C@@H]([C@H]5O[C@@H]45)[C@@H]3[C@@]1(Cl)C2(Cl)Cl [dieldrin] |  |  |  | resistance [7]: > 4000 fold
NC/C=C/C(=O)O [TACA, trans-4-aminocrotonic acid] | 6 |  |  | 
N#Cc1nn(-c2c(Cl)cc(C(F)(F)F)cc2Cl)c(NCc2cnccn2)c1SCF [Pyrafluprole, pyrafluprole] |  | 0.631 | 2 | 
NCc1cc(=O)[nH]o1 [muscimol] | 3 |  |  | 
O=C(O)C1=CCNCC1 [isoguvacine] | 3 |  |  | 
